Structures can show the parent of a compound that is named as a salt.
What was measured:
[1] = test system: GCV-resistant pp28-luciferase Towne; test: GCV-resistant pp28-luciferase HCMV luciferase assay; type: cell-based, Human Cytomegalovirus; conditions: Human betaherpesvirus 5, read-out: Mean EC50 ± SD
Experimental: (§1) The pp28-luciferase HCMV Towne and a GCV-resistant pp28-luciferase were used. The recombinant viruses express luciferase under the control of the late CMV gene promoter, pp28. Luciferase expression is activated 48–72 hours post infection (hpi). The recombinant viruses provide a highly-sensitive reporter system which correlates with plaque reduction assay. The Towne HCMV strain (ATCC VR-977) was used for plaque reduction, quantitative reverse transcriptase PCR (qRT-PCR), and immunoprecipitation assays. Human herpes virus strains were: luciferase HSV1- KOS/Dlux/oriS [52] and clinical isolates of HSV2. The clinical isolates were provided by the clinical microbiology laboratory with no identifiers that can link to a specific subject. Murid Herpesvirus (MCMV: ATCC VR-1399) was used for infection of mouse embryonic fibroblasts (MEFs) and mice.
(§2) Human Foreskin Fibroblasts (HFFs) passage 12–16 (ATCC, CRL-2088) and mouse embryonic fibroblasts (MEFs) passage 9–14 (ATCC, CRL-1658) were grown in Dulbecco's Modified Eagle Medium (DMEM) containing 10% fetal bovine serum (FBS) (Gibco, Carlsbad, CA) in a 5% CO2 incubator at 37°C. […] Luciferase activity was measured 72 h following second cycle infection. […] After incubation at 37°C for 10 days (for HCMV), 3 days for MCMV or 2 days (for HSV), the overlay was removed and plaques were counted after crystal violet staining.

MCMV = MCMV plaque reduction assay in MEFs; type: cell-based, mouse CMV
Experimental: as §1
Human Foreskin Fibroblasts (HFFs) passage 12–16 (ATCC, CRL-2088) and mouse embryonic fibroblasts (MEFs) passage 9–14 (ATCC, CRL-1658) were grown in Dulbecco's Modified Eagle Medium (DMEM) containing 10% fetal bovine serum (FBS) (Gibco, Carlsbad, CA) in a 5% CO2 incubator at 37°C. Infection with HCMV or HSV was performed in HFFs, and infection with mouse CMV was performed in MEFs. For HCMV, cells were seeded in either a 96-well plate or 100 mm culture plates (Corning Costar, Sigma Aldrich) at 0.5 or 2 million cells /plate. Following 90 minute adsorption, media was removed and cells were washed with PBS. Media containing 4% FBS and compounds were added to each well. Infected treated HFFs were collected at 72 hpi and lysates were assayed for luciferase activity using a luciferase assay kit (Promega, Madison, WI) on GloMax-Multi+ Detection System (Promega). In second cycle assays, supernatants were collected from all conditions of the first cycle at 96 hpi and used for infection of fresh HFFs in 96-well plates. Luciferase activity was measured 72 h following second cycle infection. […] After incubation at 37°C for 10 days (for HCMV), 3 days for MCMV or 2 days (for HSV), the overlay was removed and plaques were counted after crystal violet staining.

RPS14 = RPS14 (Homo sapiens, UniProt P62263); test: RPS14 nuclear localization, confocal microscopy; type: cell-based; conditions: emetine 75 nM, infected high-density cells
Experimental: Cells were fixed with 3.7% paraformaldehyde for 20 min at room temperature, permeabilized with ice cold methanol for 10 min at -20°C and blocked with 5% bovine serum albumin in 0.5% Tween-20 for 20 min at room temperature. Cells were incubated with primary antibodies at 4°C overnight, washed and incubated with fluorescently-labeled secondary antibodies for 2 h at 37°C. Fluorescence microscopy was performed using a confocal laser scanning microscope (Nikon EZ C1). All images were captured at 60X magnification and processed under identical conditions with constant parameters (including scan speed and excitation and emission wavelengths) using Nikon EZ C1 software. Data analysis (percent nuclear localization) was performed by NIS-Elements software (Nikon) for a minimum of 40 cells in the high-density and 25 cells in the low-density samples from two fields per condition.

HSV1- KOS/Dlux/oriS = test: HSV-1 luciferase assay in HFFs; type: cell-based, herpesvirus 1 (HSV-1); conditions: Human alphaherpesvirus 1, read-out: Mean EC50 ± SD
Experimental: as §1, §2

RPS14-MDM2 = target: T1, RPS14-MDM2 (Homo sapiens, UniProt P62263); test: Co-immunoprecipitation RPS14-MDM2; type: cell-based; conditions: emetine 75 nM, infected high-density cells, 24 hpi, MG132
T1 construct: endogenous in cells; host or cells: HFFs (ATCC CRL-2088), infected with HCMV Towne, MG132-treated
Experimental: Non-infected, infected or emetine-treated HFFs were treated with MG132 (10 μM) for 12h. Cells were harvested after 24 hpi and lysed with IP buffer containing 150 mM NaCl, 50mM Tris pH 7.5, 2 mM EDTA, 0.5% TritonX-100 and 0.5% NP-40-40. 1 mg of lysate was precleared with bead slurry for 30 min. The precleared lysates were incubated with anti-MDM2 (2 μg) antibody overnight. The antibody complexes were isolated using protein A/G beads (Santa Cruz), washed three times with 50% IP buffer. The immunoprecipitate-protein A/G beads were boiled in SDS sample buffer, and the supernatant was analyzed on SDS-PAGE gels after immunoblotting as described previously. 1% of the cell lysate used for IP was loaded on gels as ‘Input’. Confirmatory reverse IPs were performed as described in each experiment. Isotype control antibodies included: rabbit IgG polyclonal, mouse IgG2a kappa and mouse IgG2b kappa monoclonal (Abcam). Mouse monoclonal RPS19 antibody (Abcam) served as an additional negative control for the IPs. Densitometry analysis was performed to determine relative ratio of immunoprecipitated protein to its input level.

CC[C@H]1CN2CCc3cc(OC)c(OC)cc3[C@@H]2C[C@@H]1C[C@H]1NCCc2cc(OC)c(OC)cc21 [emetine, emetine dihydrochloride hydrate]
EC50 [1]: 38 nM
MCMV plaque reduction and cell density (MCMV; emetine 75 nM, 0.5 and 2 million cells/plate): cell-density dependent response
EC50 (MCMV; in Mus musculus, MCMV, plaque assay, read-out: Mean EC50 ± SD): 36 nM
nuclear localization of RPS14 (RPS14; 24 hpi): 66%
nuclear localization of RPS14 (RPS14; 72 hpi): 11%
EC50 (HSV1- KOS/Dlux/oriS): 56 nM
interaction between RPS14 and MDM2 (RPS14-MDM2): strongly induced the interaction between RPS14 and MDM2

Source: publication PMC4919066 (PLoS Pathogens, 2016)
